Laboratory results from paper PMC8621770, “New Compounds with Bioisosteric Replacement of Classic Choline Kinase Inhibitors Show Potent Antiplasmodial Activity” (Pharmaceutics, 2021).
Structures can show the parent of a compound that is named as a salt. Where two headings read alike, the source gives them in different places.

Assays:
P. falciparum strain 3D7 = assay: Antimalarial activity, P. falciparum lactate dehydrogenase growth inhibition assay; format: cell-based, Plasmodium falciparum; conditions: for IC50: P. falciparum 3D7 in human erythrocytes, 72 h, LDH readout, read-out: IC50 a (In vitro IC50 values against P. falciparum); for fold decrease in antimalarial activity with respect to the reference compounds BR-23 / BR-25: Fg-9, Fa-21, Fg-14 vs BR-23, Ff-1, Ff-7, Ff-3 vs BR-25; for fold decrease of antimalarial activity with respect to RSM932A: relative to RSM932A; for fold decrease in parasite lethality with respect to BR-31: relative to homologous BR-31
Procedure: Parasites of the P. falciparum strain 3D7 were grown in fresh group 0 positive human erythrocytes, obtained from the Centro Regional de Transfusion Sanguínea-SAS (Granada, Spain) and suspended at 5% haematocrit in RPMI 1640 containing 2% human serum, 0.2% NaHCO3, 0.5% Albumax II, 150 μM hypoxanthine, and […] gentamicin. Flasks were incubated at 37 °C, under 5% CO2 and 95% air mixture. […] The stock culture was then diluted with complete medium and non-parasitized erythrocytes to yield a haematocrit of 2% and parasitemia of 0.25%. Stock solutions of the test drugs were prepared at an initial concentration of 200 mM in DMSO, serially diluted and dispensed into triplicate in 96-well plates to yield final concentrations ranging from 0.0039 to 2 μM. The final well volume was 200 μL with a final concentration of DMSO 0.001%. Each plate also included positive growth controls, where only medium were added, and negative growth controls with 100 nM of chloroquine. […] A multidrop dispenser was used to add 50 μL of synchronized parasite culture per well. After 72 h of growth in presence of test compounds, the plates were stored frozen at −20 °C for at least 24 h. Next, they were thawed at room temperature. Parasite growth inhibition assays and IC50 determinations were carried out following the P. falciparum lactate dehydrogenase assay where parasite viability is quantified by measuring LDH activity upon APAD+ addition, a cofactor that is specific to the Plasmodium enzyme. To evaluate LDH activity, 140 μL of freshly made reaction mix, containing 143 mM sodium L-lactate, 143 μM APAD, 178.75 μM NBT, 1 U/mL diaphorase, 0.7% Tween 20 and 100 mM Tris-HCl (pH 8.0) were dispensed into plates. After 10 min of incubation in the dark at room temperature, absorbance was measured at 630 nm with a vmax precision multiwell plate reader from Molecular Devices, by using the accompanying SOFT maxPro software for analysis.

PfCK = biological target: T1, PfCK (Plasmodium falciparum, UniProt Q8IM71); assay: Spectrophotometric coupled enzymatic assay for PfCK activity (substrate choline); format: biochemical; conditions: for IC50: IC50 PfCK b (compound concentration required to inhibit PfCK enzyme by 50%), substrate choline 4 mM, ATP 2 mM
T1 construct: A truncated form of PfCK (Δ79-440) featuring an N-terminal 6× His-tag; 6xHis (N); host or cells: Escherichia coli BL21 (DE3) Star
Procedure: A truncated form of PfCK (Δ79-440) featuring an N-terminal 6× His-tag was purchased from Genescript (Piscataway, NJ, USA), cloned into a pET-28a vector and transformed into Escherichia coli BL21 (DE3) Star cells (Invitrogen, Carlsbad, CA, USA). The transformed bacteria were cultured in Luria-Bertani (LB) medium at 37 °C until OD600 = 0.6 and the expression was induced with 1 mM isopropyl β-D-1-thiogalactopyranoside (IPTG). The cell culture was grown overnight at 20 °C and 180 rpm. Cells were pelleted by centrifugation at 10,000 rpm, resuspended in 50 mM Tris/HCl pH 7.5, 500 mM NaCl, 0.2 mM phenylmethylsulphonyl fluoride (PMSF, Sigma Aldrich, St. Luis, MO, USA), DNase (Sigma Aldrich, St. Luis, MO, USA), 0.5 mM β-mercaptoethanol (Sigma Aldrich, St. Luis, MO, USA) and sonicated. Separation of the soluble from the insoluble fraction was obtained by centrifugation at 15,000 rpm and 4 °C. The target enzyme was purified by a two-step purification protocol. In the first step, the cell lysate was incubated for 45 min with Ni-NTA resin (Qiagen, Venlo, The Netherlands) in a gravity column. Then, the column was washed with 40 column volumes (CV) of 50 mM Tris/HCl pH 7.5, 300 mM NaCl, 10 mM imidazole and 1 CV of 50 mM Tris/HCl pH 7.5, 300 mM NaCl, 40 mM imidazole. Finally, the His-tagged enzyme was eluted from the column using a 50 mM Tris/HCl pH 7.5, 300 mM NaCl, 400 mM imidazole buffer. A subsequent size-exclusion chromatography step was implemented to further polish the sample using a HiPrep 26/60 Sephacryl 100 HR column (GE Healthcare, Little Chalfont, Buckinghamshire, UK) previously equilibrated with 20 mM Tris/HCl pH 7.5, 150 mM NaCl buffer. This second purification step afforded a pure protein sample. The protein production yield was estimated to be nearly 2.5 mg of recombinant enzyme per liter of bacterial culture.
A spectrophotometric 96-well plate assay for PfCK activity was established based on an assay previously described. The reaction mix was composed as follows: 100 mM Tris/HCl pH 7.5, 100 mM KCl, 10 mM MgCl2, 0.5 mM phosphoenolpyruvate, 0.25 mM NADH, 4 U of pyruvate kinase, 5 U lactate dehydrogenase, 2 mM ATP, 4 mM choline chloride and different concentrations of the selected compounds. All the necessary compounds for the assay were purchased from Sigma Aldrich (St. Luis, MO, USA) and the final assay volume was 200 μL. The enzymatic reaction was initiated by the addition of the enzyme at less than 10 nM concentration and the reaction rates were measured by monitoring the decrease in the absorbance at 340 nm for 20 min at room temperature using a Spark10M instrument (Tecan). Finally, the IC50 values for each compound were determined by plotting the enzyme fractional activity (f.a.) against the logarithm of compound concentration (log[I]). Curve-fitting was performed with a dose-response curve from Origin (OriginLab Corporation, Northampton, MA, USA), using the following equation: f.a.=1/1+10^logIC50−logI
All data points were collected in triplicate and the final dose-response curves were plotted with MATLAB (R2018a (9.4.0.813654), 2018, MathWorks, Natick, MA, USA). See curves in Figure S1 in Supplementary Materials.

[1] = Plasmodium falciparum, Erythrocyte
[2] = read-out: PfCK Fractional Activity at 25 µM

T1 sequence (Q8IM71 entry or part of it): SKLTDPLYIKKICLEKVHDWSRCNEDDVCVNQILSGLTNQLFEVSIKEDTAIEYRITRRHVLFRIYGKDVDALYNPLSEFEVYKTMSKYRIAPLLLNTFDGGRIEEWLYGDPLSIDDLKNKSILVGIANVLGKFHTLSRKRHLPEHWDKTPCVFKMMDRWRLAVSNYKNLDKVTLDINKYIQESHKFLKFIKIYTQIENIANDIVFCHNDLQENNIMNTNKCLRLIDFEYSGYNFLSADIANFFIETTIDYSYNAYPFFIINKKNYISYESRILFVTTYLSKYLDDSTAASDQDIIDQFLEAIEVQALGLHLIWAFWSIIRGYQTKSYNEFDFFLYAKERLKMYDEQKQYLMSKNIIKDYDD

| melting point [°C] | SMILES | IC50 (P. falciparum strain 3D7; [1]) [nM] | remaining activity at 25 µM (PfCK; [2]) [%] | other results |
| --- | --- | --- | --- | --- |
| – | c1cc2c(N3CCCCC3)nc[n+](Cc3ccc(-c4ccc(C[n+]5cnc(N6CCCCC6)c6ccsc65)cc4)cc3)c2s1 [Fg-30, 1,1’-([1,1’-biphenyl]-4,4’-diylbis(methylene))bis(4-(piperidin-1-yl)thieno[2,3-d]pyrimidin-1-ium) bromide] | 27.9 | 54.8 ± 7.2 | – |
| – | c1cc2c(s1)c(N1CCCCCC1)cc[n+]2Cc1ccc(-c2ccc(C[n+]3ccc(N4CCCCCC4)c4sccc43)cc2)cc1 [Fg-10, 1,1’-([1,1’-biphenyl]-4,4’-diylbis(methylene))bis(7-(azepan-1-yl)thieno[3,2-b]pyridin-4-ium) bromide] | 53 | 44.7 ± 8.55 | – |
| – | [Br-].[Br-].c1cc2c(s1)c(N1CCCC1)cc[n+]2Cc1ccc(CCCCc2ccc(C[n+]3ccc(N4CCCC4)c4sccc43)cc2)cc1 [Ff-1, 4,4’-((butane-1,4-diylbis(4,1-phenylene))bis(methylene))bis(7-(pyrrolidin-1-yl)thieno[3,2-b]pyridin-4-ium) bromide] | 90.1 | 47 ± 3.53 | fold decrease in antimalarial activity with respect to the reference compounds BR-23 / BR-25 (P. falciparum strain 3D7): 10 fold; IC50 (PfCK): 10900 ± 1330 nM |
| 321 to 323 | [Br-].[Br-].c1cc2c(s1)c(N1CCCCCC1)nc[n+]2Cc1ccc(CCc2ccc(C[n+]3cnc(N4CCCCCC4)c4sccc43)cc2)cc1 [Fa-23, 1,1’-((ethane-1,2-diylbis(4,1-phenylene))bis(methylene))bis(4-(azepan-1-yl)thieno[3,2-d]pyrimidin-1-ium) bromide] | 67.8 | – | – |
| – | c1cc2c(s1)c(N1CCCCC1)nc[n+]2Cc1ccc(-c2ccc(C[n+]3cnc(N4CCCCC4)c4sccc43)cc2)cc1 [Fa-24, 1,1’-([1,1’-biphenyl]-4,4’-diylbis(methylene))bis(4-(piperidin-1-yl)thieno[3,2-d]pyrimidin-1-ium) bromide] | 57.8 | 57.1 ± 5.15 | – |
| – | c1cc2c(s1)c(N1CCCC1)cc[n+]2Cc1ccc(-c2ccc(C[n+]3ccc(N4CCCC4)c4sccc43)cn2)nc1 [Fg-12, 4,4’-([2,2’-bipypidine]-5,5’-diylbis(methylene))bis(7-(pyrrolidin-1-yl)thieno[3,2-b]pyridin-4-ium bromide)] | – | – | IC50 (P. falciparum strain 3D7): 305 nM |
| – | CN(c1ccc(Cl)cc1)c1nc[n+](Cc2ccc(-c3ccc(C[n+]4cnc(N(C)c5ccc(Cl)cc5)c5ccsc54)cc3)cc2)c2sccc12.[Br-].[Br-] [Fp-8, 1,1’-([1,1’-biphenyl]-4,4’-diylbis(methylene))bis(4-((4-chlorophenyl)(methyl)amino)thieno[2,3-d]pyrimidin-1-ium) bromide] | 282 | 8.1 ± 5.8 | fold decrease of antimalarial activity with respect to RSM932A (P. falciparum strain 3D7): up to 10 fold; fold decrease in parasite lethality with respect to BR-31 (P. falciparum strain 3D7): 10 fold; IC50 (PfCK): 4170 ± 480 nM |
| – | c1cc2c(s1)c(N1CCCCCC1)nc[n+]2Cc1ccc(OCCOc2ccc(C[n+]3cnc(N4CCCCCC4)c4sccc43)cc2)cc1 [Ff-34, 1,1′-(((ethane-1,2-diylbis(oxy))bis(4,1-phenylene))bis(methylene))bis(4-(azepan-1-yl)thieno[3,2-d]pyrimidin-1-ium) bromide] | 87.9 | 52.2 ± 12.4 | remaining activity at 25 µM (PfCK; read-out: residual enzyme activity): 52.2% |
| – | CN(c1ccccc1)c1nc[n+](Cc2ccc(-c3ccc(C[n+]4cnc(N(C)c5ccccc5)c5sccc54)cc3)cc2)c2ccsc12.[Br-].[Br-] [Fp-1, 1,1’-([1,1’-biphenyl]-4,4’-diylbis(methylene))bis(4-(methyl(phenyl)amino)thieno[3,2-d]pyrimidin-1-ium)bromide] | 142 | 12.9 ± 3.32 | fold decrease of antimalarial activity with respect to RSM932A (P. falciparum strain 3D7): up to 10 fold; fold decrease in parasite lethality with respect to BR-31 (P. falciparum strain 3D7): 10 fold; IC50 (PfCK): 7270 ± 230 nM |
| 314 to 316 | [Br-].[Br-].c1cc2c(s1)c(N1CCCCC1)nc[n+]2Cc1ccc(CCc2ccc(C[n+]3cnc(N4CCCCC4)c4sccc43)cc2)cc1 [Fa-25, 1,1’-((ethane-1,2-diylbis(4,1-phenylene))bis(methylene))bis(4-(piperidin-1-yl)thieno[3,2-d]pyrimidin-1-ium) bromide] | 34.7 | – | – |
| 288 to 290 | [Br-].[Br-].c1cc2c(N3CCCC3)nc[n+](Cc3ccc(CCCCc4ccc(C[n+]5cnc(N6CCCC6)c6ccsc65)cc4)cc3)c2s1 [Ff-3, 1,1’-((butane-1,4-diylbis(4,1-phenylene))bis(methylene))bis(4-(pyrrolidin-1-yl)thieno[2,3-d]pyrimidin-1-ium) bromide] | 38.8 | – | fold decrease in antimalarial activity with respect to the reference compounds BR-23 / BR-25 (P. falciparum strain 3D7): 10 fold |
| 282 to 284 | [Br-].[Br-].c1cc2c(N3CCCCC3)nc[n+](Cc3ccc(CCCCc4ccc(C[n+]5cnc(N6CCCCC6)c6ccsc65)cc4)cc3)c2s1 | – | – | – |
| 300 to 302 | [Br-].[Br-].c1cc2c(N3CCCC3)nc[n+](Cc3ccc(-c4ccc(C[n+]5cnc(N6CCCC6)c6ccsc65)cc4)cc3)c2s1 [Fg-14, 1,1’-([1,1’-biphenyl]-4,4’-diylbis(methylene))bis(4-(pyrrolidin-1-yl)thieno[2,3-d]pyrimidin-1-ium) bromide] | 20.6 | – | fold decrease in antimalarial activity with respect to the reference compounds BR-23 / BR-25 (P. falciparum strain 3D7): 10 fold |
| 298 to 300 | [Br-].[Br-].c1cc2c(N3CCCCCC3)nc[n+](Cc3ccc(CCc4ccc(C[n+]5cnc(N6CCCCCC6)c6ccsc65)cc4)cc3)c2s1 [Fg-19, 1,1’-((ethane-1,2-diylbis(4,1-phenylene))bis(methylene))bis(4-(azepan-1-yl)thieno[2,3-d]pyrimidin-1-ium) bromide] | 71.5 | – | – |

| SMILES | melting point [°C] | IC50 (P. falciparum strain 3D7; [1]) [nM] | remaining activity at 25 µM (PfCK; [2]) [%] | other results |
| --- | --- | --- | --- | --- |
| c1cc2c(s1)c(N1CCCCCC1)cc[n+]2Cc1ccc(-c2ccc(C[n+]3ccc(N4CCCCCC4)c4sccc43)cc2)cc1 (as salt: bromide) [Fg-10, 1,1’-([1,1’-biphenyl]-4,4’-diylbis(methylene))bis(7-(azepan-1-yl)thieno[3,2-b]pyridin-4-ium) bromide] | 220 to 222 | – | – | – |
